Assay [1] addresses T1, human TRPA1 (Homo sapiens, UniProt O75762).
T1 construct: expressed in transfected cells; host or cells: CHO cells (G-418 selection)
The experiment in a line: 45Calcium uptake assay, inhibition of AITC induced calcium uptake in human TRPA1 expressing CHO cells. The following applies: AITC 30 μM; for inhibition at 1 µM: 1.0 μM compound, read-out: human TRPA1 Percentage inhibition at 1.0 μM; for inhibition at 10 µM: 10.0 μM compound, read-out: human TRPA1 Percentage inhibition at 10.0 μM. In kind it is cell-based. The source says: (§1) The illustrative examples of the present invention are screened for TRPA1 activity according to a modified procedure described in (a) Tóth, A. et al. Life Sciences, 2003, 73, 487-498. (b) McNamara C, R. et al, Proc. Natl. Acad. Sci. U.S.A., 2007, 104, 13525-13530. The screening of the compounds can be carried out by other methods and procedures known to persons skilled in the art.
(§2) Screening for TRPA1 Antagonist Using the ^45Calcium Uptake Assay:
(§3) The inhibition of TRPA1 receptor activation was measured as inhibition of allyl isothiocyanate (AITC) induced cellular uptake of radioactive calcium.
(§4) Test compounds were dissolved in 100% DMSO to prepare 10 mM stock and then diluted using plain medium with 0.1% BSA and 1.8 mM CaCl2 to get the desired concentration. The final concentration of DMSO in the reaction was 0.5% (v/v). Human TRPA1 expressing CHO cells were grown in F-12 DMEM medium with 10% FBS, 1% penicillin-streptomycin solution, and 400 μg/ml of G-418. Rat TRPA1 expressing CHO cells were grown in F-12 DMEM medium with 10% FBS, 1% penicillin-streptomycin solution, and 400 μg/ml of Zeocin. Cells were seeded 24 h prior to the assay in 96 well plates so as to get ˜50,000 cells per well on the day of experiment. Cells were treated with the test compounds for 10 minutes followed by the addition of AITC at a final concentration of 30 μM (for human TRPA1) and/or 10 μM (for rat TRPA1) and 5 μCi/ml ^45Ca^+2 for 3 minutes. Cells were washed and lysed using a buffer containing 1% Triton X-100, 0.1% deoxycholate and 0.1% SDS. Radioactivity in the lysate was measured in a Packard TopCount after addition of liquid scintillant. (Toth et al, Life Sciences (2003) 73, 487-498; McNamara C R et al, Proceedings of the National Academy of Sciences, (2007) 104, 13525-13530).
(§5) Concentration response curves were plotted as a % of maximal response obtained in the absence of test antagonist. IC50 values can be calculated from concentration response curve by nonlinear regression analysis using GraphPad PRISM software.

Assay [2] deals with T2, rat TRPA1 (Rattus norvegicus, UniProt Q6RI86).
T2 construct: expressed in transfected cells; host or cells: CHO cells (Zeocin selection)
T2 sequence (Q6RI86 whole entry): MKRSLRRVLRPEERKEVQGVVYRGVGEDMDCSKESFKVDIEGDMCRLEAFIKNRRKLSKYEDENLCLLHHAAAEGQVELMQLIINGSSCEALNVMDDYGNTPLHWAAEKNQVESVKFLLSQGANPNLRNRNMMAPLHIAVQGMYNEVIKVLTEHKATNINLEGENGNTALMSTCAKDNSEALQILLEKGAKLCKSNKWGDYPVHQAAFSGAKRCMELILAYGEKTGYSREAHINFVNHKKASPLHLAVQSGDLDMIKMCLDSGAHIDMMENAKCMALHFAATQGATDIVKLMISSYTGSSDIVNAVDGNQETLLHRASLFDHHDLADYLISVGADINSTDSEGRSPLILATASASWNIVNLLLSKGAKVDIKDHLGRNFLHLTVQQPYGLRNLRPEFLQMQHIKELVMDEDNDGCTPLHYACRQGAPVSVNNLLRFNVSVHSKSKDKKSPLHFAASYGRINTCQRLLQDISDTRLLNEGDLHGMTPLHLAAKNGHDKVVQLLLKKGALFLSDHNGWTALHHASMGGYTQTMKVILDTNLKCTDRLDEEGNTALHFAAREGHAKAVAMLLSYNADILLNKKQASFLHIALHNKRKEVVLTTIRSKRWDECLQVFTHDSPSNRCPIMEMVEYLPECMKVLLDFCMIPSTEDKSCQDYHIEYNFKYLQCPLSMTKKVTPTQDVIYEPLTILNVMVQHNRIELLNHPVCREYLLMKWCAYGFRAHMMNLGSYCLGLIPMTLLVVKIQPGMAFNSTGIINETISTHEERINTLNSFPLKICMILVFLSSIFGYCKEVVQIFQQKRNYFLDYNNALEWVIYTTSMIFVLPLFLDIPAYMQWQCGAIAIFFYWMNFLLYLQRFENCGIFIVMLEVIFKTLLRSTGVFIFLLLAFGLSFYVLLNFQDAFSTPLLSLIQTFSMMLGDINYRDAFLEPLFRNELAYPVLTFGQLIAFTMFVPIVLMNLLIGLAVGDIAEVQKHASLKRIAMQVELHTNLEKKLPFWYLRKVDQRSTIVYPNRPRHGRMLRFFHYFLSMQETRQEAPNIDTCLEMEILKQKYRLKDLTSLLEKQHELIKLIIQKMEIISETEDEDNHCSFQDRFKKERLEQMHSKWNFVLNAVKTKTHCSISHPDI
The assay can be described thus: 45Calcium uptake assay, inhibition of AITC induced calcium uptake in rat TRPA1 expressing CHO cells. Type of assay: cell-based. To be noted: AITC 10 μM; for inhibition at 1 µM: 1.0 μM compound, read-out: rat TRPA1 Percentage inhibition at 1.0 μM; for inhibition at 10 µM: 10.0 μM compound, read-out: rat TRPA1 Percentage inhibition at 10.0 μM.
From the text: as §1, §2, §3, §4, §5

pIC50: −log10 of the molar value.

T1 sequence (O75762 whole entry): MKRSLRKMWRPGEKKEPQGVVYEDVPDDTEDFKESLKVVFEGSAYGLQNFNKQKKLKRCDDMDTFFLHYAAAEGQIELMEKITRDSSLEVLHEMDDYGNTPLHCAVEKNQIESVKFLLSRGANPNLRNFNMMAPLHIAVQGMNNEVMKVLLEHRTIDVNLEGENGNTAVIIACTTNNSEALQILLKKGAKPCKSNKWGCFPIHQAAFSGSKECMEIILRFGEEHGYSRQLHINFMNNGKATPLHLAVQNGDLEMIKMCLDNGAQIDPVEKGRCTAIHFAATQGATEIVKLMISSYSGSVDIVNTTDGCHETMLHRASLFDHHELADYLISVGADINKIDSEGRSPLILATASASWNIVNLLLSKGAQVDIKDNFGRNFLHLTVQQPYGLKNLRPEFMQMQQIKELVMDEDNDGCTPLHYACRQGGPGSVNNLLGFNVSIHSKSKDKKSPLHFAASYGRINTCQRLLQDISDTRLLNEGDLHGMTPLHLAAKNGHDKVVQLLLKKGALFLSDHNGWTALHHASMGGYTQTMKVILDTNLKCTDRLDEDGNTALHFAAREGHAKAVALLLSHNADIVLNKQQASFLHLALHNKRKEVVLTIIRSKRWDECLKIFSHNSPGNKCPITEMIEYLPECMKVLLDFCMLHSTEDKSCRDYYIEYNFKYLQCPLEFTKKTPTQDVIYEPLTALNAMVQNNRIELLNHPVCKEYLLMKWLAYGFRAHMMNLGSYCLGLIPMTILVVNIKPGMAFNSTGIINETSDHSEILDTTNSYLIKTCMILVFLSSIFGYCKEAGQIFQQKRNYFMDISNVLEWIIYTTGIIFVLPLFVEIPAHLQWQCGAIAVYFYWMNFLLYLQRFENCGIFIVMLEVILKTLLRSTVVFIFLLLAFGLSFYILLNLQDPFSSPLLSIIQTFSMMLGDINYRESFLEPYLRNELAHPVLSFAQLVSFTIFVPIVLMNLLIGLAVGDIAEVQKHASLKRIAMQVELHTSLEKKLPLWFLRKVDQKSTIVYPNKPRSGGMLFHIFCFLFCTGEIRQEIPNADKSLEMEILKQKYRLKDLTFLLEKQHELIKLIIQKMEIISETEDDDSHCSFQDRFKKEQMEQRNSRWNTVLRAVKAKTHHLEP

As for `Cn1c(=O)c2c(CC(=O)Nc3nc(-c4ccc(C(F)(F)F)cc4F)cs3)nsc2n(C)c1=O` [Example 21, 2-(5,7-Dimethyl-4,6-dioxo-4,5,6,7-tetrahydro[1,2]thiazolo[5,4-d]pyrimidin-3-yl)-N-{4-[2-fluoro-4-(trifluoromethyl)phenyl]-1,3-thiazol-2-yl}acetamide], in assay [1], the inhibition at 1 µM was found to be 99.5%, the inhibition at 10 µM is 100% and the pIC50 was more than 7.30. Also, in assay [2], the inhibition at 1 µM came to 100%, the inhibition at 10 µM was found to be 100% and the pIC50 was more than 7.30.
On to `Cn1c(=O)c2c(CC(=O)Nc3nc(-c4cc(F)cc(C(F)(F)F)c4)cs3)nsc2n(C)c1=O` [Example 22, 2-(5,7-Dimethyl-4,6-dioxo-4,5,6,7-tetrahydro[1,2]thiazolo[5,4-d]pyrimidin-3-yl)-N-{4-[3-fluoro-5-(trifluoromethyl)phenyl]-1,3-thiazol-2-yl}acetamide], for which, in assay [1], the inhibition at 1 µM was 100%, the inhibition at 10 µM is 100% and the pIC50 was more than 7.30. Further, in assay [2], the inhibition at 1 µM was determined as 98.3% and the inhibition at 10 µM amounted to 100%.
On to `Cn1c(=O)c2c(CC(=O)Nc3nc(-c4cccc(C(F)(F)F)c4F)cs3)nsc2n(C)c1=O` [Example 23, 2-(5,7-Dimethyl-4,6-dioxo-4,5,6,7-tetrahydro[1,2]thiazolo[5,4-d]pyrimidin-3-yl)-N-{4-[2-fluoro-3-(trifluoromethyl)phenyl]-1,3-thiazol-2-yl}acetamide], for which, in assay [1], the inhibition at 1 µM stood at 99.3%, the inhibition at 10 µM was 100% and the pIC50 is more than 7.30. In assay [2], the inhibition at 1 µM was found to be 100%, the inhibition at 10 µM came out at 100% and the pIC50 was more than 7.30.
On to `Cn1c(=O)c2c(CC(=O)Nc3nc(-c4ccc(F)c(OC(F)(F)F)c4)cs3)nsc2n(C)c1=O` [Example 24, 2-(5,7-Dimethyl-4,6-dioxo-4,5,6,7-tetrahydro[1,2]thiazolo[5,4-d]pyrimidin-3-yl)-N-{4-[4-fluoro-3-(trifluoromethoxy)phenyl]-1,3-thiazol-2-yl}acetamide], for which, in assay [1], the inhibition at 1 µM came to 99.6%, the inhibition at 10 µM came out at 100% and the pIC50 is more than 7.30. Besides, in assay [2], the inhibition at 1 µM worked out at 100%, the inhibition at 10 µM is 99.8% and the pIC50 is 7.00 to 7.30.
`Cn1c(=O)c2c(CC(=O)Nc3nc(-c4ccc(OC(F)(F)F)c(F)c4)cs3)nsc2n(C)c1=O` [Example 25, 2-(5,7-Dimethyl-4,6-dioxo-4,5,6,7-tetrahydro[1,2]thiazolo[5,4-d]pyrimidin-3-yl)-N-{4-[3-fluoro-4-(trifluoromethoxy)phenyl]-1,3-thiazol-2-yl}acetamide]: in assay [1], the inhibition at 1 µM was found to be 99.9%, the inhibition at 10 µM was 100% and the pIC50 was more than 7.30. Further, in assay [2], the inhibition at 1 µM is 98.8%, the inhibition at 10 µM came out at 100% and the pIC50 is 7.00 to 7.30.
`Cn1c(=O)c2c(CC(=O)Nc3nc(-c4ccc(Cl)c(Cl)c4)cs3)nsc2n(C)c1=O` [Example 26, N-[4-(3,4-Dichlorophenyl)-1,3-thiazol-2-yl]-2-(5,7-dimethyl-4,6-dioxo-4,5,6,7-tetrahydro[1,2]thiazolo[5,4-d]pyrimidin-3-yl)acetamide]: in assay [1], the inhibition at 1 µM turned out to be 99.9%, the inhibition at 10 µM amounted to 99.5% and the pIC50 is more than 7.30. Moreover, in assay [2], the inhibition at 1 µM stood at 97.7%, the inhibition at 10 µM was determined as 100% and the pIC50 was less than 7.00.
On to `Cn1c(=O)c2c(CC(=O)Nc3nc(-c4ccc(F)c(F)c4)cs3)nsc2n(C)c1=O` [Example 27, N-[4-(3,4-Difluorophenyl)-1,3-thiazol-2-yl]-2-(5,7-dimethyl-4,6-dioxo-4,5,6,7-tetrahydro[1,2]thiazolo[5,4-d]pyrimidin-3-yl)acetamide], for which, in assay [1], the inhibition at 1 µM came to 97.8%, the inhibition at 10 µM was found to be 99.8% and the pIC50 is more than 7.30. In assay [2], the inhibition at 1 µM is 81.8%, the inhibition at 10 µM amounted to 99.6% and the negative logarithm of the IC50 (pIC50) is less than 7.00.
`Cn1c(=O)c2c(CC(=O)Nc3nc(-c4ccc(F)cc4F)cs3)nsc2n(C)c1=O` [Example 28, N-[4-(2,4-Difluorophenyl)-1,3-thiazol-2-yl]-2-(5,7-dimethyl-4,6-dioxo-4,5,6,7-tetrahydro[1,2]thiazolo[5,4-d]pyrimidin-3-yl)acetamide]: in assay [1], the inhibition at 1 µM came out at 98%, the inhibition at 10 µM was 99.6% and the pIC50 is more than 7.30. Besides, in assay [2], the inhibition at 1 µM was 92.8% and the inhibition at 10 µM was determined as 100%.
Regarding `Cn1c(=O)c2c(CC(=O)Nc3nc(-c4ccc(Cl)c(C(F)(F)F)c4)cs3)nsc2n(C)c1=O` [Example 29, 2-(5,7-Dimethyl-4,6-dioxo-4,5,6,7-tetrahydro[1,2]thiazolo[5,4-d]pyrimidin-3-yl)-N-{4-[4-chloro-3-(trifluoromethyl)phenyl]-1,3-thiazol-2-yl}acetamide], in assay [1], the inhibition at 1 µM was 98.1%, the inhibition at 10 µM came out at 99.6% and the pIC50 is more than 7.30. Moreover, in assay [2], the inhibition at 1 µM was determined as 100%, the inhibition at 10 µM was 100% and the pIC50 was more than 7.30.
As for `Cn1c(=O)c2c(CC(=O)Nc3nc(-c4ccc(OC(F)(F)F)c(Cl)c4)cs3)nsc2n(C)c1=O` [Example 30, 2-(5,7-Dimethyl-4,6-dioxo-4,5,6,7-tetrahydro[1,2]thiazolo[5,4-d]pyrimidin-3-yl)-N-{4-[3-chloro-4-(trifluoromethoxy)phenyl]-1,3-thiazol-2-yl}acetamide], in assay [1], the inhibition at 1 µM amounted to 95.6%, the inhibition at 10 µM was 99.7% and the pIC50 was more than 7.30. In assay [2], the inhibition at 1 µM is 100%, the inhibition at 10 µM was 99.3% and the pIC50 is 7.00 to 7.30.
Take `Cn1c(=O)c2c(CC(=O)Nc3nc(-c4ccc(Cl)c(OC(F)(F)F)c4)cs3)nsc2n(C)c1=O` [Example 31, 2-(5,7-Dimethyl-4,6-dioxo-4,5,6,7-tetrahydro[1,2]thiazolo[5,4-d]pyrimidin-3-yl)-N-{4-[4-chloro-3-(trifluoromethoxy)phenyl]-1,3-thiazol-2-yl}acetamide]: in assay [1], the inhibition at 1 µM is 99.2% and the inhibition at 10 µM amounted to 99.2%. In assay [2], the inhibition at 1 µM is 99.6% and the inhibition at 10 µM was determined as 96.2%.
On to `Cn1c(=O)c2c(CC(=O)Nc3nc(-c4cc(Cl)cc(C(F)(F)F)c4)cs3)nsc2n(C)c1=O` [Example 32, 2-(5,7-Dimethyl-4,6-dioxo-4,5,6,7-tetrahydro[1,2]thiazolo[5,4-d]pyrimidin-3-yl)-N-{4-[3-chloro-5-(trifluoromethyl)phenyl]-1,3-thiazol-2-yl}acetamide], for which, in assay [1], the inhibition at 1 µM amounted to 99.2% and the inhibition at 10 µM came out at 99.4%. In assay [2], the inhibition at 1 µM was determined as 99.8% and the inhibition at 10 µM came out at 100%.
For the compound `Cn1c(=O)c2c(CC(=O)Nc3nc(-c4ccc(F)c(C(F)(F)F)c4F)cs3)nsc2n(C)c1=O` [Example 37, N-{4-[2,4-Difluoro-3-(trifluoromethyl)phenyl]-1,3-thiazol-2-yl}-2-(5,7-dimethyl-4,6-dioxo-4,5,6,7-tetrahydro[1,2]thiazolo[5,4-d]pyrimidin-3-yl)acetamide], in assay [1], the inhibition at 1 µM worked out at 98.3%, the inhibition at 10 µM amounted to 99.3% and the pIC50 is more than 7.30. In addition, the pIC50 in assay [2] is more than 7.30.
Turning to `Cn1c(=O)c2c(CC(=O)Nc3nc(-c4cc(F)c(C(F)(F)F)c(F)c4)cs3)nsc2n(C)c1=O` [Example 38, N-{4-[3,5-difluoro-4-(trifluoromethyl)phenyl]-1,3-thiazol-2-yl}-2-(5,7-dimethyl-4,6-dioxo-4,5,6,7-tetrahydro[1,2]thiazolo[5,4-d]pyrimidin-3-yl)acetamide], in assay [1], the inhibition at 1 µM was 100%, the inhibition at 10 µM stood at 99.9% and the pIC50 is more than 7.30. Besides, in assay [2], the inhibition at 1 µM is 100%, the inhibition at 10 µM was 100% and the pIC50 was more than 7.30.

Source of the values: patent US8575178B2, “Isothiazolo-pyrimidinedione derivatives as TRPA1 modulators” (Glenmark Pharmaceuticals S.A., priority 2009, dated 2013).
